No end group written: not given here.
B1: apo A-IV: 46,000-Da polypeptide associated with lipoproteins; species of the cited test protein not printed (protein, UniProt P06727 21-396, looked up)
Apolipoprotein A-IV: EVSADQVATVMWDYFSQLSNNAKEAVEHLQKSELTQQLNALFQDKLGEVNTYAGDLQKKLVPFATELHERLAKDSEKLKEEIGKELEELRARLLPHANEVSQKIGDNLRELQQRLEPYADQLRTQVSTQAEQLRRQLTPYAQRMERVLRENADSLQASLRPHADELKAKIDQNVEELKGRLTPYADEFKVKIDQTVEELRRSLAPYAQDTQEKLNHQLEGLTFQMKKNAEELKARISASAEELRQRLAPLAEDVRGNLRGNTEGLQKSLAELGGHLDQQVEEFRRRVEPYGENFNKALVQQMEQLRQKLGPHAGDVEGHLSFLEKDLRDKVNSFFSTFKEKESQDKTLSLPELEQQQEQQQEQQQEQVQMLAPLES
B2: human apo A-IV: entire human apolipoprotein A-IV molecule obtained from human serum, purified by preparative polyacrylamide gel electrophoresis (protein, UniProt P06727 21-396, looked up)
Apolipoprotein A-IV: EVSADQVATVMWDYFSQLSNNAKEAVEHLQKSELTQQLNALFQDKLGEVNTYAGDLQKKLVPFATELHERLAKDSEKLKEEIGKELEELRARLLPHANEVSQKIGDNLRELQQRLEPYADQLRTQVSTQAEQLRRQLTPYAQRMERVLRENADSLQASLRPHADELKAKIDQNVEELKGRLTPYADEFKVKIDQTVEELRRSLAPYAQDTQEKLNHQLEGLTFQMKKNAEELKARISASAEELRQRLAPLAEDVRGNLRGNTEGLQKSLAELGGHLDQQVEEFRRRVEPYGENFNKALVQQMEQLRQKLGPHAGDVEGHLSFLEKDLRDKVNSFFSTFKEKESQDKTLSLPELEQQQEQQQEQQQEQVQMLAPLES
B3: cholecystokinin (peptide, UniProt P06307 21-115, looked up)
Cholecystokinin: QPVPPADPAGSGLQRAEEAPRRQLRVSQRTDGESRAHLGALLARYIQQARKAPSGRMSIVKNLQNLDPSHRISDRDYMGWMDFGRRSAEEYEYPS
modifications: Cholecystokinin
notes: peptide proposed as affecting eating behavior

Tests used:
animal = conditions: in vivo; cited from earlier work
male Sprague Dawley rats [1] = assay: Feeding study: food intake after infusion into the third ventricle of 24 h fasted rats; type: in vivo, rat
Protocol: Animals used in vivo food intake studies were male Sprague Dawley rats weighing between 280 and 320 grams. The rats were housed in a room illuminated from 06:00 to 18:00 hours (twelve hour light-dark cycle) with a temperature maintained at 21 ±1° C. Both tap water and powdered laboratory chow (Laboratory chow #5001, Purina Mills, Inc.) were provided ad libitum to the rats.
Rats used in the study were surgically equipped with an infusion cannula in the third ventricle. Under sodium pentobarbital anesthesia (50 mg/kg ip), each rat was fixed in a stereotaxic apparatus, its skull was exposed, and two small screws were threaded into the skull to anchor the cannula. A three millimeter diameter hole was drilled in the skull on the midline six millimeters anterior to ear bar zero. […]
In the feeding study, food was removed twenty four hours before the experiment, but free access to water was allowed. […] After twenty four hours of fasting, each rat was re-fed at 13:00 hour, and powdered food consumption was measured at thirty minutes after the resumption of feeding. […]
Data from the feeding study were evaluated using one-way analysis of variance, and multiple comparisons were carried out using the method of least significant difference. […]

male Sprague Dawley rats [2] = conditions: cited from earlier work
[3] = apo A-IV appearing in mesenteric lymph after a lipid meal; cited from earlier work

Molecule	food intake in animal studies (animal)	other results
CSCC[C@H](NC(=O)[C@H](CC(C)C)NC(=O)[C@H](Cc1cnc[nH]1)NC(=O)CNC(=O)[C@@H](NC(=O)[C@H](C)NC(=O)[C@H](Cc1c[nH]c2ccccc12)NC(=O)[C@H](CCC(N)=O)NC(=O)[C@H](CC(N)=O)NC(=O)CNC(=O)[C@H](CC(C)C)NC(=O)[C@H](CCCN=C(N)N)NC(=O)[C@H](CCC(N)=O)NC(=O)[C@@H]1CCC(=O)N1)C(C)C)C(N)=O [bombesin]	decrease food intake	
EVTSDQVANVMWDYFTQL SNNAKEAVEQLQ (EVTSDQVANVMWDYFTQLSNNAKEAVEQLQ) [SEQ ID NO:1, 30-mer, first thirty amino acids of the mature rat apo A-IV]		inhibition of food intake (male Sprague Dawley rats [1]; synthetic peptide infused into third ventricle, doses 0.125-1.0 μg per rat, 24 h fasted, food consumption at thirty minutes after re-feeding): inhibit food intake in a dose-dependent manner
Glucagon	decrease food intake	
anorectin	decrease food intake	
calcitonin (CGNLSTCMLGTYTQDFNKFHTFPQTAIGVGAP; ends and bridges not checked; cysteine pairing not given here; UniProt P01258 85-116, looked up) [peptide proposed as affecting eating behavior]	decrease food intake	
corticotropin releasing hormone (SEEPPISLDLTFHLLREVLEMARAEQLAQQAHSNRKLMEII; ends and bridges not checked; UniProt P06850 154-194, looked up) [peptide proposed as affecting eating behavior]	decrease food intake	
cyclo-HisPro	decrease food intake	
enterostatin	decrease food intake	
B1		food intake after central administration (male Sprague Dawley rats [2]; administered centrally): significantly suppressed in a dose-dependent manner; potency administered centrally versus peripherally (male Sprague Dawley rats [2]; central vs peripheral administration): more than 50 fold; food intake [3]: suppresses food intake
B2		suppression of food intake (male Sprague Dawley rats [1]; third ventricle infusion, 1.5 and 3 μg per rat): effective in suppressing food intake in rats in a dose dependent manner
B3	decrease food intake	
